For assay [1], the system named is panel of trained testers. The assay can be described thus: Taste profile of the pure substance in saline or sugar solution, tasting by a panel of trained testers. The class given is in vivo, human. As to conditions: for Taste profile: pure substance in saline or sugar solution; for Umami character: own tests, tasting. The source says: The ethyl ester (3) of a partially hydrogenated geranyl derivate has already been described in the literature (Maslozhirovaya Promyshlennost 1983, 4, 26-27). In the context of our own tests the corresponding methyl ester (4) during tasting by a panel of trained testers was described as very neutral; the corresponding methyl amine (5) was assigned fruity notes (see Table 2 contained within the examples of the present text). In the following, selected substances manufactured according to the general instructions described above are presented. In each case the taste profiles have been determined by determining the taste impression of the respective substance as a pure substance in saline or sugar solution and therefore deviate from the taste impressions (in beef extracts) shown in Table 1 and FIG. 1. The following structures are further examples from this substance class, prepared and tasted according to AAV 1 and AAV 2—on the basis of various alcohols and amines.

A short description of assay [2]: Sensory profile in American beef extract base (Table 1, FIG. 1). Format: in vivo. More on the design: scale not given here. From the text:
This is also shown in Table 1 and the spider diagram in FIG. 1, in which an American beef extract as a base is compared with such a base plus the addition of 10 ppm of a compound (I) according to the invention and/or 10 ppm of a compound of formula (II) according to the invention and with such a base plus the addition of 0.05 weight % of MSG (monosodium glutamate).

The subject of assay [3] is panel of trained test persons. The assay can be described thus: Application in green tea drink, tasting panel. Format: in vivo, human. As to conditions: green tea drink with 0.008 weight % of a 1% solution in propylene glycol. The procedure:
The green tea concentrate is mixed with a 1% solution of N-((E)-3,7-dimethyl-octa-2,6-dienyl)-oxalamide methyl ester (I) in propylene glycol. Then it is topped up with demineralized water and thoroughly mixed again. The product is then filtered, packaged ready for consumption and sterilized at 118° C.

[4] abbreviates: beef extract + 0.05 weight % MSG.

The results in this text go back to patent US8273398B2, “Geranylamine derivates of oxalic acid” (Symrise AG, priority 2008, dated 2012).

For `CNC(=O)C(=O)OC/C=C(\C)CCC=C(C)C`, the Taste profile entry in assay [1] is on record as “soapy, flowery, per- fumey”.
Take `COC(=O)C(=O)NCC=C(C)C`: the Taste profile result in assay [1] was “taste of its own, sol- vent”.
In the case of `CNC(=O)C(=O)NCC=C(C)C`, the Taste profile entry in assay [1] is on record as “neutral”.
For `COC(=O)C(=O)NCCC(C)CCCC(C)C` (stereo not shown), the Taste profile result in assay [1] is reported as “fatty, bitter, metallic”.
On the same count and under the same terms, the entry for `CNC(=O)C(=O)NCCC(C)CCCC(C)C` (stereo not shown) is “neutral”.
Consider `N[C@@H](CCC(=O)O)C(=O)[O-].[Na+]` [MSG, monosodium glutamate, reference compound], for which, in assay [2] (setting [4]), the “Baked, roasted” value is listed as 5.00; the Bitter stood at 1.35; the Meaty came to 5.47; the Metallic turned out to be 3.47. In addition, in assay [2] (setting [4]), the Mouth-watering stood at 4.53, the Mouthfeel turned out to be 5.41, the Salty was determined as 3.29 and the Sour was found to be 2.94. In assay [2] (setting [4]), the Sweet came out at 2.41 and the “Tenacity, long-lasting” value is on record as 5.06.
For `CC(C)=CCC/C(C)=C/CNC(=O)C(=O)NC/C=C(\C)CCC=C(C)C` [formula (1), N,N′-Bis-((E)-3,7-dimethyl-octa-2,6-dienyl)-oxalamide], in assay [1], the Umami character entry is given as “did not demonstrate any umami character” and the Taste profile result was “neutral, slightly hot”.
As to `CC(C)=CCC/C(C)=C\CNC(=O)C(=O)NC/C=C(/C)CCC=C(C)C` [formula (2), N,N′-Bis-((Z)-3,7-dimethyl-octa-2,6-dienyl)-oxalamide], in assay [1], the Umami character result is reported as “did not demonstrate any umami character” and the Taste profile result was “neutral, slight burning”.
For `COC(=O)C(=O)NCCC(C)CCC=C(C)C` (stereo not shown) [formula (4)], the Taste profile result is “very neutral” in assay [1] (listed as (4)) and “neutral” in assay [1] (listed as drawing 23).
In the case of `CNC(=O)C(=O)NCCC(C)CCC=C(C)C` (stereo not shown) [formula (5)], the Taste profile result in assay [1] (listed as (5)) is on record as “fruity notes”; in assay [1] (listed as drawing 24), “fruity”.
As for `CCOC(=O)C(=O)NC/C=C(\C)CCC=C(C)C` [formula (6), N-((E)-3,7-dimethyl-octa-2,6-dienyl)-oxalic acid amide-ethyl-ester], the Taste profile entry in assay [1] is “musty, herbaceous and chemical”.
Regarding `CCNC(=O)C(=O)NC/C=C(\C)CCC=C(C)C` [formula (7)], the Taste profile entry in assay [1] (listed as (7)) is reported as “very neutral”; in assay [1] (listed as drawing 19), “neutral”.
On to `COC(=O)C(=O)NC/C=C(\C)CCC=C(C)C` [formula (I), N-((E)-3,7-dimethyl-octa-2,6-dienyl)-oxalic acid amide-methyl-ester], for which the “Taste compared with the unflavored green tea base” value in assay [3] is recorded as “markedly preferable”. Further, in assay [1], the Umami character entry is recorded as “clear umami taste” and the Taste profile result was “sweet, full, prickling, umami”. In assay [2] (beef extract + 10 ppm compound), the “Baked, roasted” value amounted to 3.55; the Bitter was found to be 1.36; the Meaty was 4.55; the Metallic is 3.82. In assay [2] (beef extract + 10 ppm compound), the Mouth-watering is given as 3.64, the Mouthfeel was determined as 4.45, the Salty is on record as 2.64 and the Sour came to 2.91. In assay [2] (beef extract + 10 ppm compound), the Sweet was 1.36 and the “Tenacity, long-lasting” value is 3.73.
In the case of `CNC(=O)C(=O)NC/C=C(\C)CCC=C(C)C` [formula (II), N-((E)-3,7-dimethyl-octa-2,6-dienyl)-N′-methyl-oxalamide], in assay [1], the Umami character entry is recorded as “clear umami taste” and the Taste profile result is given as “meaty, full, metallic, umami”. In assay [2] (beef extract + 10 ppm compound), the “Baked, roasted” value is 4.27; the Bitter came out at 1.00; the Meaty came to 5.09; the Metallic was found to be 3.55. In assay [2] (beef extract + 10 ppm compound), the Mouth-watering stood at 4.14, the Mouthfeel turned out to be 4.73, the Salty is reported as 2.82 and the Sour stood at 2.45. For the same molecule, in assay [2] (beef extract + 10 ppm compound), the Sweet stood at 2.27 and the “Tenacity, long-lasting” value is on record as 4.64.
Consider `COC(=O)C(=O)NC/C=C(/C)CCC=C(C)C` [formula (III), N-((Z)-3,7-dimethyl-octa-2,6-dienyl)-oxalic acid amide-methyl-ester], for which, in assay [1], the Umami character entry is listed as “do not in fact have any umami character” and the Taste profile result was “musty, bitter, long-lasting”.
For `CNC(=O)C(=O)NC/C=C(/C)CCC=C(C)C` [formula (IV), N-((Z)-3,7-dimethyl-octa-2,6-dienyl)-N′-methyl-oxalamide] the same measures were “do not in fact have any umami character” and “sour”.
